Measured values taken from US20250186408A1, “TREATMENT OF PHARMACORESISTANT EPILEPSY” (Katholieke Universiteit Leuven, priority 2021, published 2025).
pEC50, pIC50: −log10 of the molar value. Like-named read-outs stand apart in the source and are kept apart here.

Experiments:
[1] = target: ADORA2A (Homo sapiens, UniProt P29274); experiment: Calcium Flux ADORA2A Antagonist; assay type: cell-based; settings: for pIC50: read-out: RC50, result type IC50; for Emax: read-out: Max response
Method: (≤0.2% DMSO concentration). Assays were performed in 1× dye loading buffer consisting of 1× Dye (DiscoverX, Calcium No Wash^PLUS kit, Catalog No. 90-0091), 1× Additive A and 2.5 mM Probenecid in HBSS/20 mM HEPES. Probenecid was prepared fresh. Prior to testing, media was aspirated from cells and replaced with 25 μL dye loading buffer. Cells were incubated for 45 min at 37° C. and then 20 min at RT. For agonist determination, 25 μL of 2× compound in HBSS/20 mM HEPES was added using a FLIPR Tetra (MDS). […] 25 μL of 2× sample was added and cells were incubated for 30 min at RT in the dark to equilibrate plate temperature. After incubation, antagonist determination was initiated by addition of 25 μL of 1× compound with 3×EC80 agonist using FLIPR. For both agonist and antagonist formats, activity was measure on a FLIPR Tetra (MDS). Calcium mobilization was monitored for 2 min with a 5 sec baseline read.
FLIPR read—Area under the curve, was calculated for the entire 2 min read.

[2] = target: T1, HTR3A (Homo sapiens, UniProt P46098); experiment: Ion Channel HTR3A Opener; assay type: cell-based; settings: for Emax: Ion Channel HTR3A Opener, read-out: Max response
T1 sequence (P46098 24-478): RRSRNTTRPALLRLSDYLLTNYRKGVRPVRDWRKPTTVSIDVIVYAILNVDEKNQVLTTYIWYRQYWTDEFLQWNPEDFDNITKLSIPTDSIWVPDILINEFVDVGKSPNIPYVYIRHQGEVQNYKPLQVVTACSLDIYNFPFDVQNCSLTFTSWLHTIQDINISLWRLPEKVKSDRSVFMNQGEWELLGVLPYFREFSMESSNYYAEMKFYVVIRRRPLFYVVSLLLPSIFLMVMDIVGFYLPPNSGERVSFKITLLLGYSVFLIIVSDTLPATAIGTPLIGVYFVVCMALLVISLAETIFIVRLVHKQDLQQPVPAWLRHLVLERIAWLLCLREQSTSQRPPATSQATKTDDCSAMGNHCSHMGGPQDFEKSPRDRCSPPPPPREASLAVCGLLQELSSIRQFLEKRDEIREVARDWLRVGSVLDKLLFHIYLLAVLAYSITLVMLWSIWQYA

[3] = Plasma protein binding; assay type: in vitro ADME; settings: pH 7.4, human plasma
Excerpt: In vitro ADME profiling of compounds was done by Eurofins Panlabs Inc (St Charles, MO, USA) using their ADME-Tox service (Cat Ref P375, Tier 1 ADME Panel). […] (28). The atom-based log P calculation method, called OsirisP, uses as an increment system and adds contributions of every atom based on its atom type. The prediction engine distinguishes a total of 368 atom types and was optimized using a training set of more than 5000 molecules with experimentally determined log P values. The free prediction engine has proven to outperform many alternative calculation methods (29).
Human plasma, used as the protein containing matrix, was spiked with the test compound at 10 μM (final solvent concentration of 1% DMSO). The assay was performed in a 96-well format in a dialysis block (Teflon) with the dialysate compartment containing PBS (pH 7.4) and the sample side containing an equal volume of the spiked protein matrix. The plate was incubated at 37° C. for 4 h. After incubation, samples were taken from both compartments, diluted with the phosphate buffer, followed by the addition of acetonitrile and centrifugation. The supernatants were then used for HPLC-MS/MS analysis. Acebutolol, quinidine and warfarin were tested in each assay. The percentage bound to proteins and the recovery were calculated as follows: […]

[4] = target: T2, ADRB1 (Homo sapiens, UniProt P08588); experiment: cAMP ADRB1 Antagonist; assay type: cell-based; settings: for Emax: read-out: Max response
T2 sequence (P08588 whole entry): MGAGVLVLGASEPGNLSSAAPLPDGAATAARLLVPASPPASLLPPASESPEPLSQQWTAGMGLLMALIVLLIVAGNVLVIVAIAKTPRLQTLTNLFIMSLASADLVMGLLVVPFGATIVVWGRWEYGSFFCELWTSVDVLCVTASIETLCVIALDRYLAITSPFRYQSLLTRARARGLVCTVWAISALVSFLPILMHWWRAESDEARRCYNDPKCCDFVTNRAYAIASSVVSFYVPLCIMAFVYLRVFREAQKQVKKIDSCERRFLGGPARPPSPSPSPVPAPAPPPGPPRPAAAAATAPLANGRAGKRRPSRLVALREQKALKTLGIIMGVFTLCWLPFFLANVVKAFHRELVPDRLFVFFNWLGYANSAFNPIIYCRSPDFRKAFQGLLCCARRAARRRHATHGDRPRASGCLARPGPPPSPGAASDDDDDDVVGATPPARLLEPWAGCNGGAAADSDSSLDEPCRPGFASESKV
Method: (§1) cAMP Hunter cell lines were expanded from freezer stocks. […] For Gi agonist determination, cells were incubated with sample in the presence of EC80 forskolin to induce response. For both conditions, media was aspirated from cells and replaced with 15 μL 2:1 HBSS/10 mM HEPES:cAMP XS+ Ab reagent. […] 5 μL of 4× sample was added to cells and incubated at 37° C. or room temperature (RT) for 30 or 60 min. Final assay vehicle concentration was 1%. […] Media was aspirated from cells and replaced with 10 μL 1:1 HBSS/HEPES:cAMP XS+ Ab reagent. […] For Gi coupled GPCRs, EC80 forskolin was included. […] Compound activity was analyzed using CBIS data analysis suite (ChemInnovation, CA).

[5] = target: T2, ADRB1; experiment: cAMP ADRB1 Agonist; assay type: cell-based; settings: for Emax: read-out: Max response
Method: as §1

[6] = Calcium Flux ADORA2A Antagonist

ADORA2A, sequence (P29274 whole entry): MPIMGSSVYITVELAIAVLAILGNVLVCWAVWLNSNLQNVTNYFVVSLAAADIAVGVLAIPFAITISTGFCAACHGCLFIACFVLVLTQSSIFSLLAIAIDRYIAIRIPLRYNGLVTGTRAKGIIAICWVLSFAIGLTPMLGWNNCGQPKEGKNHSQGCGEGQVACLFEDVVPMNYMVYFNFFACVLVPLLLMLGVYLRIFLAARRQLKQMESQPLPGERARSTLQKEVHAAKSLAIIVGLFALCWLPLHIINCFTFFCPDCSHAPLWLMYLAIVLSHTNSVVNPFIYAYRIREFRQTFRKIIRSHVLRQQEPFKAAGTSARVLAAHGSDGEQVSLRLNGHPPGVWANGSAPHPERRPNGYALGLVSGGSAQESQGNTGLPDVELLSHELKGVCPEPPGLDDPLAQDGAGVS

CC(C)(C)c1ccc(C#CC(O)c2ccccc2)cc1 (racemic) [Compound 3.3, rac-3-(4-(tert-butyl)phenyl)-1-phenylprop-2-yn-1-ol]
pIC50 [1, 6]: < 5.00 | Emax [1]: 0% | pEC50 [2]: < 5.00 | Emax [2]: 0% | fraction unbound at 4 h, 10 μM [3]: 0.002 | pIC50 [4]: < 5.00 | Emax [4]: 2.2% | pEC50 [5]: < 5.00 | Emax [5]: 0.6%

Clc1cccc(C#Cc2n[nH]c3ncccc23)c1 [Compound 10.1, 3-((3-chlorophenyl)ethynyl)-1H-pyrazolo[3,4-b]pyridine]
Emax [1, 6]: 0% | pIC50 [1, 6]: < 5.00 | pEC50 [2]: < 5.00 | Emax [2]: 3.4% | fraction unbound at 4 h, 10 μM [3]: 0.0035 | Emax ([4]; cAMP ADRB1 Antagonist): 40.3% | pIC50 ([4]; cAMP ADRB1 Antagonist, read-out: RC50, result type IC50): < 5.00 | Emax ([5]; cAMP ADRB1 Agonist): 0% | pEC50 ([5]; cAMP ADRB1 Agonist, read-out: RC50, result type EC50): < 5.00
